Experiment [1] deals with thapsigargin (Tg)-induced Ca^2+ entry (SOCE) in Jurkat, U937, Luva, RBL-2H3, HL-60 and HEK-293 cells. The experiment in a line: Thapsigargin-induced SOCE Fura-2 bioassay in various cell types (FIG. 1). The class given is cell-based. Conditions: 1 μM, positive control, all tested cell types. Here is the method:
A Fura-2 calcium flux assay was used to determine cytoplasmic Ca^2+ levels. Briefly, cells were preloaded with Fura-2 AM, and fluorescence intensity in cells intensity was measured over time as a ratio of detected 510 nm fluorescent light emission intensity when excited by UV light at 340 nm and 380 nm wavelengths (f340/f380 ratio). Gadolinium (Gd^3+) is known to block SOCE at a concentration of 1 μM and was used at 1 μM as a positive control in these experiments (gray line).

For experiment [2], the system named is kidney cell-line model. Conditions: background statement; cited from earlier work.
Experiment [3] deals with UUO mice. Conditions: background statement; cited from earlier work.
Experiment [4] has as its system SOCE in U937 human monocytes. The experiment can be described thus: SOCE Fura-2 bioassay in U937 cells. Conditions: Homo sapiens, U-937, read-out: IC50 SOCE, purified cannabinoids, U937; Table 5.
Experimental: (§1) Briefly, SOCE inhibition experiments were performed as described in Example 8, using each of the hemp extracts listed below and in Tables 6A and 6B at six concentrations each in each of the five cell types listed above to obtain dose response curves, as shown in FIGS. 11A-11SS. […] All data are averages of three independent runs±SEM. […] Hemp extracts used in FIGS. 11A-11SS are: Sour Space Candy (SSC), Hawaiian Haze (HH), Special Sauce (SS), Suver Haze (SH), White CBG (WCBG), Elektra (ELEK), Cherry Wine (CW), Lifter (LIF), Grape Soda (GS).
Experiment [5] deals with SOCE in Luva human mast cells. The experiment in a line: SOCE Fura-2 bioassay in Luva cells. Conditions: Homo sapiens, Mast cell, read-out: IC50 SOCE, purified cannabinoids, Luva; Table 5.
Experimental: as §1
For experiment [6], the system named is SOCE in Jurkat T cells. The experiment can be described thus: SOCE Fura-2 bioassay in Jurkat cells. In kind it is cell-based, human. Conditions: for IC50: Homo sapiens, read-out: IC50 SOCE, purified cannabinoids, Jurkat, Table 5.
The test system of experiment [7] is SOCE in THP-1 human monocytes. The experiment can be described thus: SOCE Fura-2 bioassay in THP-1 cells. Conditions: Homo sapiens, THP-1, read-out: IC50 SOCE, purified cannabinoids.
In experiment [8] the test system is SOCE in HEK-293 human embryonic kidney cells. The experiment in a line: SOCE Fura-2 bioassay in HEK293 cells. The class given is cell-based. Conditions: for IC50: Homo sapiens, HEK293, read-out: IC50 SOCE, purified cannabinoids, HEK-293, Table 5.
In experiment [9] the test system is SOCE in RBL-2H3 rat mast cells. The experiment can be described thus: SOCE Fura-2 bioassay in RBL-2H3 cells. Conditions: Rattus norvegicus, RBL-2H3, read-out: IC50 SOCE, purified cannabinoids, RBL-2H3; Table 5.
Experimental: as §1

For orientation: IC50 means the point on the concentration scale where inhibition reaches its midpoint.

In the case of `[Cl][Gd]([Cl])[Cl]` [Gd^3+, Gadolinium Chloride], in [1], the “effect on Tg-induced SOCE (f340/f380 ratio)” value is on record as “inhibited SOCE”.

Turning to `c1ccc2c(c1)CCC[C@H]2Nc1nc2ccccc2[nH]1` [NS8593], the “cell proliferation in a kidney cell-line model” value in [2] is “inhibit cell proliferation”. Moreover, the “progression of kidney damage and fibrosis in the UUO mouse model” value in experiment [3] is “ameliorates the progression of kidney damage and fibrosis”.

As for `CCCCCc1cc(O)c2c(c1)OC(C)(C)[C@@H]1CCC(C)=C[C@@H]21` [Δ9-THC, (6aR,10aR)-6,6,9-trimethyl-3-pentyl-6a,7,8,10a-tetrahydro-6H-benzo[c]chromen-1-ol], the concentration for half-maximal inhibition (IC50) in experiment [4] was over 50 µM; in [5], 0.97 µM; in experiment [6] it was over 50 µM; in experiment [7], over 50 µM; in experiment [8], over 50 µM; in experiment [9], over 50 µM. The “effect on SOCE Ca^2+ signals, pure compounds” value in [6] (10 μM, 1 μM thapsigargin, FIG. 7A, 7C) is recorded as “low to no effects”.

Consider `CCCCCc1cc(OC)c2c(c1)OC(C)(C)c1ccc(C)cc1-2` [CBNM, 1-methoxy-6,6,9-trimethyl-3-pentyl-6H-benzo[c]chromene], for which the IC50 in experiment [4], in experiment [5], in [6], in experiment [7], in [8] and in experiment [9] was over 50 µM each time.

As for `C=C(C)[C@@H]1CCC(C)=C[C@H]1c1c(O)cc(CCC)cc1O` [CBDV, (1′R,2′R)-5′-methyl-2′-(prop-1-en-2-yl)-4-propyl-1′,2′,3′,4′-tetrahydro-[1,1′-biphenyl]-2,6-diol], the IC50 in experiment [4] was 17.5 µM; in experiment [5] it was 0.17 µM; in [6] it was 6 µM; in [7], over 50 µM; in experiment [8], 17.8 µM; in experiment [9], 30.2 µM. Further, the “combinatory effect on SOCE inhibition when paired with CBGA (isobolographic analysis)” value in experiment [6] (pairs expected to inhibit 50%, FIGS. 10A-10T) is “sub-additive”. In experiment [8] (10 μM, HEK293 (FIG. 8) vs immune cells), the “inhibitory effect in immune cells compared with non-immune HEK293 cells” value is on record as “selective”.

Values taken from patent publication US20230091336A1, “CANNABINOID COMPOSITIONS” (priority 2020, published 2023).
